Laboratory results from US9845482B2, “Compositions and methods for enhancing bioenergetic status in female germ cells” (The General Hospital Corporation, priority 2011, dated 2017).

Legend:
OSCs from mice = experiment: Screen of mouse OSCs for compounds that enhance mitochondrial function (mtDNA, ATP, mitochondrial mass, membrane potential, gene expression); assay type: cell-based; conditions: 24 hours; for activity above the baseline (DMSO alone), scored as a positive result: 25 or 50 μM (berberine 5 μM and 25 μM)
Description: Female infertility due to chemotherapy, aging and premature ovarian failure (POF) is due in part to a decline in mitochondrial function in oocytes and OSCs. Accordingly, OSCs from mice were used to screen for small compounds that enhance mitochondrial function (“bioenergetic status”) in female germline cells. Assays for enhancing mitochondrial function included mtDNA content, ATP, NAD+/NADH, mitochondrial mass, mitochondrial membrane potential, and gene expression of known mitochondrial mass regulators and electron transport chain components.
All the compounds were dissolved in DMSO. For screening purposes the cells were treated with the vehicle (0.001% DMSO) or with 25 or 50 μM of each compound (except for berberine, which the concentrations used for the screen were 5 μM and 25 μM) for 24 hours. For validation of the top 6 hits, cells were treated with vehicle (0.001% DMSO) or either 5 or 25 μM of each compound for 24 hours. For the gene expression profile, the cells were treated with the concentration that was considered to work better in the previous validation assays.
Mitochondrial membrane potential was measured with a fluorescent probe, Tetramethylrhodamine methyl ester (TMRM) (Sigma) as described before (Rolo A. P. Biochim. Biophys. Acta 2003 1637: 127-132). Briefly the cells were loaded with 6.6 μM TMRM in HBSS buffer at 37° C. for 15 minutes in the dark. The supernatant was then aspirated, and the cells returned to the original volume with KHH. TMRM is a membrane-permeable cationic fluorophore that accumulates electrophoretically in mitochondria in proportion to their mitochondrial membrane potential (Ehrenberg B. V. et al. Biophys. J. 1988 53:785-794). Cell suspensions (200 μl containing 10^5 cells) were loaded into 96-well plates and fluorescence measured using excitation and emission wavelengths of 485 and 590 nm, respectively. Mitochondrial membrane potential was estimated, taking into account the complete depolarization caused by carbonyl cyanide p-(trifluoromethoxy)phenylhydrazone (FCCP).
For mtDNA analysis, total DNA was extracted with DNeasy blood and tissue kit (QIAGEN). mtDNA was amplified using primers specific for the mitochondrial cytochrome c oxidase subunit 2 (COX2) gene and normalized to genomic DNA by amplification of the ribosomal protein s18 (rps18) nuclear gene. Primers were designed using the IDT software (IDT).
ATP content was measured using a luciferase-based assay with a commercial kit according to the manufacturer's instructions (Roche Applied Science, Penzberg, Germany) and normalized to protein content in each sample.
Mitochondrial mass was evaluated using the fluorescent probe N-nonyl acridine orange (NAO), briefly the cells were incubated in culture media containing 10 nM of NAO for 30 minutes at 37° C. in the dark. The cells were then trypsinized and resuspended in culture media without NAO. The NAO fluorescence intensity was then determined by flow cytometry on the FACSCALIBUR® (BD Biosciences, San Jose, Calif., USA) using the 488 nm laser.
For gene expression analysis, RNA from skeletal muscle tissue and C2C12 cells were extracted with RNeasy mini kit (QIAGEN) according to the instructions and quantified using the NanoDrop 1000 spectrophotometer (Thermo Scientific). cDNA was synthesized with the iSCRIP cDNA synthesis kit (BioRad) using 200 ng of RNA. Quantitative RT-PCR reactions were performed using 1 μM of primers and LIGHTCYCLER® 480 SYBR® Green Master (Roche Applied Science, Penzberg, Germany) on an LIGHTCYCLER® 480 detection system (Roche Applied Science, Penzberg, Germany). Calculations were performed by a comparative method (2-ΔΔCT) using actin as an internal control. Primers were designed using the IDT software (IDT).

Mouse OSCs = experiment: NAD+ and NADH levels in mouse OSCs treated with mitochondrial enhancers; assay type: cell-based; conditions: 24 hours
Experimental: FIG. 35 depicts levels of NAD+ (A) and NADH (B) in OSCs treated with mitochondrial enhancers. Mouse OSCs maintained in culture (Zou et al., Nat Cell Biol 2009 11:631-636) were exposed to the indicated test compounds for 24 hours and then assessed for levels of NAD+ and NADH. Female infertility due to chemotherapy, aging and premature ovarian failure (POF) is due in part to a decline in mitochondrial function in oocytes and OSCs. Accordingly, OSCs from mice were used to screen for small compounds that enhance mitochondrial function (“bioenergetic status”) in female germline cells. Assays for enhancing mitochondrial function included mtDNA content, ATP, NAD+/NADH, mitochondrial mass, mitochondrial membrane potential, and gene expression of known mitochondrial mass regulators and electron transport chain components. All the compounds were dissolved in DMSO. For screening purposes the cells were treated with the vehicle (0.001% DMSO) or with 25 or 50 μM of each compound (except for berberine, which the concentrations used for the screen were 5 μM and 25 μM) for 24 hours. For validation of the top 6 hits, cells were treated with vehicle (0.001% DMSO) or either 5 or 25 μM of each compound for 24 hours. For the gene expression profile, the cells were treated with the concentration that was considered to work better in the previous validation assays.

SMILES	mitochondrial parameters (OSCs from mice)	activity above the baseline (DMSO alone), scored as a positive result (OSCs from mice)	NAD^+ levels (Mouse OSCs)
O=c1cc(-c2ccc(O)cc2)oc2cc(O)cc(O)c12 [apigenin, 5,7-Dihydroxy-2-(4-hydroxyphenyl)-4H-1-benzopyran-4-one]	increase mitochondrial parameters in a beneficial way	activity above the baseline	raise
O=C(Nc1ccccc1-c1cn2c(CN3CCNCC3)csc2n1)c1cnc2ccccc2n1 [SRT-1720, N-[2[3-(piperazin-1-ylmethyl)imidazo[2,1-b][1,3]thiazol-6-yl]phenyl]quinoxaline-2-carboxamide]	increase mitochondrial parameters in a beneficial way	activity above the baseline	
O=c1cc(-c2ccc(O)c(O)c2)oc2cc(O)cc(O)c12 [luteolin, 2-(3,4-Dihydroxyphenyl)-5,7-dihydroxy-4-chromenone]	increase mitochondrial parameters in a beneficial way	activity above the baseline	raise
